In US8557741B2, “3-aminocarbonyl-substituted benzoylcyclohexanediones and their use as herbicides” (Bayer CropScience AG, priority 2010, dated 2013):
Read-outs that look alike come from different tables or passages of the source.

Columns and labels:
Assay type in all cases: in vivo
Phartoitis purpureum [1] = assay: Post-emergence herbicidal action against harmful plants; details: 504 h, dosage 80 g/ha
From the text: (§1) The abbreviations used in the tables below denote: • ABUTH Abutilon theophrasti • AMARE Amaranthus retroflexus • ECHCG Echinochloa crus galli • PHBPU Phartoitis purpureum • STEME Stellaria media • ALOMY Alopecurus myosuroides • AVEFA Avena fatua • MATIN Matricaria inodora • POLCO Fallopia convolvulus • VERPE Veronica persica 1. Pre-emergence Herbicidal Action Against Harmful Plants Seeds of monocotyledonous and dicotyledonous weed and crop plants are placed in sandy loam in wood-fibre pots, covered with soil and cultivated in a greenhouse under good growth conditions. 2 to 3 weeks after sowing, the test plants are treated at the one-leaf stage. The compounds according to the invention, formulated in the form of wettable powders (WP) or as emulsion concentrates (EC), are then sprayed as aqueous suspension or emulsion at a water application rate of 600 to 800 I/ha (converted) with the addition of 0.2% of wetting agent onto the green parts of the plants. After the test plants have been kept in the greenhouse under optimum growth conditions for about 3 weeks, the activity of the preparations is rated visually in comparison to untreated controls (herbicidal activity in percent (%): 100% activity=the plants have died, 0% activity=control plants, —=not tested).

Amaranthus retroflexus [2] = assay: as above; details: 504 h, dosage 80 g/ha, visual rating after about 3 weeks (Table D), read-out: Herbicidal action against AMARE
From the text: as §1

Echinochloa crus galli [3] = assay: as above; details: 504 h, dosage 80 g/ha, visual rating after about 3 weeks (Table D), read-out: Herbicidal action against ECHCG
From the text: as §1

Abutilon theophrasti [4] = assay: as above; details: 504 h, dosage 80 g/ha, read-out: Herbicidal action against ABUTH
From the text: as §1

Stellaria media [5] = assay: as above; details: 504 h, dosage 80 g/ha, visual rating after about 3 weeks (Table D), read-out: Herbicidal action against STEME
From the text: as §1

Matricaria inodora [6] = assay: as above; details: Tripleurospermum inodorum, 504 h, dosage 80 g/ha, read-out: Herbicidal action against MATIN
From the text: as §1

Veronica persica [7] = assay: as above; details: 504 h, dosage 80 g/ha, visual rating after about 3 weeks (Table D), read-out: Herbicidal action against VERPE
From the text: as §1

Phartoitis purpureum [8] = assay: Pre-emergence herbicidal action against harmful plants; details: dosage 320 g/ha, visual assessment after 3 weeks (Table A)
From the text: (§2) The abbreviations used in the tables below denote: • ABUTH Abutilon theophrasti • AMARE Amaranthus retroflexus • ECHCG Echinochloa crus galli • PHBPU Phartoitis purpureum • STEME Stellaria media • ALOMY Alopecurus myosuroides • AVEFA Avena fatua • MATIN Matricaria inodora • POLCO Fallopia convolvulus • VERPE Veronica persica 1. Pre-emergence Herbicidal Action Against Harmful Plants Seeds of monocotyledonous and dicotyledonous weed plants and crop plants are placed in wood-fibre pots in sandy loam and covered with soil. The compounds according to the invention and the compounds known from the prior art, formulated in the form of wettable powders (WP) or as emulsion concentrates (EC), are then applied as aqueous suspension or emulsion at a water application rate of 600 to 800 I/ha (converted) with the addition of 0.2% of wetting agent to the surface of the covering soil. After the treatment, the pots are placed in a greenhouse and kept under good growth conditions for the test plants. The visual assessment of the damage to the test plants is carried out after a trial period of 3 weeks by comparison with untreated controls (herbicidal activity in percent (%): 100% activity=the plants have died, 0% activity=like control plants, —=not tested). The results of comparative table A show the compounds according to the invention have a higher herbicidal activity than the compounds of the greatest structural similarity known from the closest prior art.

Amaranthus retroflexus [9] = assay: as above; details: 504 h, dosage 320 g/ha, visual assessment after 3 weeks (Table A), read-out: Herbicidal action against AMARE
From the text: as §2

Echinochloa crus galli [10] = assay: as above; details: Echinochloa, 504 h, dosage 320 g/ha, visual assessment after 3 weeks (Table A), read-out: Herbicidal action against ECHCG
From the text: as §2

Abutilon theophrasti [11] = assay: as above; details: Abutilon theophrasti, 504 h, dosage 320 g/ha, visual assessment after 3 weeks (Table A), read-out: Herbicidal action against ABUTH
From the text: as §2

Stellaria media [12] = assay: as above; details: 504 h, dosage 320 g/ha, visual assessment after 3 weeks (Table A), read-out: Herbicidal action against STEME
From the text: as §2

Matricaria inodora [13] = assay: as above; details: Tripleurospermum inodorum, 504 h, dosage 320 g/ha, visual assessment after 3 weeks (Table A), read-out: Herbicidal action against MATIN
From the text: as §2

Veronica persica [14] = assay: as above; details: 504 h, dosage 320 g/ha, visual assessment after 3 weeks (Table A), read-out: Herbicidal action against VERPE
From the text: as §2

Fallopia convolvulus = assay: Post-emergence herbicidal action against harmful plants; details: 504 h, dosage 80 g/ha, read-out: Herbicidal action against POLCO
From the text: as §1

[15] = visual rating after about 3 weeks (Table D), read-out: Herbicidal action against PHBPU
[16] = visual rating after about 3 weeks (Table D)
[17] = visual rating after about 3 weeks (Table E), read-out: Herbicidal action against PHPBU
[18] = visual rating after about 3 weeks (Table E)

| Structure (SMILES) | pest or weed control at 80 g/ha (Phartoitis purpureum [1]; [15]) | pest or weed control at 80 g/ha (Amaranthus retroflexus [2]) | pest or weed control at 80 g/ha (Echinochloa crus galli [3]) | pest or weed control at 80 g/ha (Abutilon theophrasti [4]; [16]) | pest or weed control at 80 g/ha (Stellaria media [5]) | pest or weed control at 80 g/ha (Matricaria inodora [6]; [16]) | pest or weed control at 80 g/ha (Veronica persica [7]) | Herbicidal action against PHBPU (Phartoitis purpureum [8]) | pest or weed control at 320 g/ha (Amaranthus retroflexus [9]) | pest or weed control at 320 g/ha (Echinochloa crus galli [10]) | pest or weed control at 320 g/ha (Abutilon theophrasti [11]) | pest or weed control at 320 g/ha (Stellaria media [12]) | pest or weed control at 320 g/ha (Matricaria inodora [13]) | pest or weed control at 320 g/ha (Veronica persica [14]) | pest or weed control at 80 g/ha (Fallopia convolvulus; [16]) | pest or weed control at 80 g/ha (Phartoitis purpureum [1]; [17]) | pest or weed control at 80 g/ha (Fallopia convolvulus; [18]) | pest or weed control at 80 g/ha (Abutilon theophrasti [4]; [18]) | pest or weed control at 80 g/ha (Matricaria inodora [6]; [18]) |
| --- | --- | --- | --- | --- | --- | --- | --- | --- | --- | --- | --- | --- | --- | --- | --- | --- | --- | --- | --- |
| CCN(CC)C(=O)COc1c(S(C)(=O)=O)ccc(C(=O)C2=C(O)CCCC2=O)c1C(F)(F)F [Compound E2] | 100% | 100% | 90% | 90% | 100% | 100% | 100% | 80% | 100% | 100% | 100% | 90% | 100% | 100% |  |  |  |  |  |
| CCN(C)C(=O)COc1c(S(=O)(=O)CC)ccc(C(=O)C2=C(O)CCCC2=O)c1Cl [Compound S6, reference compound] | 80% | 80% | 20% | 90% | 90% | 80% | 100% |  | 100% | 90% | 100% | 80% | 80% | 90% | 0% |  |  |  |  |
| CCN(CC)C(=O)COc1c(S(C)(=O)=O)ccc(C(=O)C2=C(O)CCCC2=O)c1Cl [Compound S2, reference compound] | 90% | 90% | 30% | 80% | 90% | 70% | 90% | 70% | 100% | 70% | 40% | 20% | 60% | 100% |  |  |  |  |  |
| CCN(C)C(=O)COc1c(S(=O)(=O)CC)ccc(C(=O)C2=C(O)CCCC2=O)c1C(F)(F)F [Compound E6] | 100% | 90% | 100% | 100% | 100% | 100% | 100% |  | 100% | 100% | 100% | 100% | 100% | 100% | 90% |  |  |  |  |
| CN(C)C(=O)COc1c(S(C)(=O)=O)ccc(C(=O)C2=C(O)CCCC2=O)c1Cl [Compound S4, reference compound] |  | 60% |  | 70% | 90% | 70% | 90% |  | 100% | 40% | 50% | 90% | 80% | 100% | 0% |  |  |  |  |
| CCN(CC)C(=O)COc1c(S(=O)(=O)CC)ccc(C(=O)C2=C(O)CCCC2=O)c1Cl [Compound S3, reference compound] | 60% | 100% | 0% | 90% | 90% | 70% | 90% | 40% | 80% | 50% | 70% | 50% | 80% | 100% | 40% |  |  |  |  |
| CN(C)C(=O)COc1c(S(C)(=O)=O)ccc(C(=O)C2=C(O)CCCC2=O)c1C(F)(F)F [Compound E4] |  | 90% |  | 90% | 100% | 90% | 100% |  | 100% | 100% | 100% | 90% | 100% | 100% | 70% |  |  |  |  |
| CCS(=O)(=O)c1ccc(C(=O)C2=C(O)CCCC2=O)c(Cl)c1OCC(=O)NC [Compound S10, reference compound] |  |  |  |  |  |  |  |  |  |  |  |  |  |  |  | 90% | 80% | 90% | 70% |
| CCS(=O)(=O)c1ccc(C(=O)C2=C(O)CCCC2=O)c(C(F)(F)F)c1OCC(=O)NC [Compound E10] |  |  |  |  |  |  |  |  |  |  |  |  |  |  |  | 100% | 100% | 100% | 90% |
| CCN(CC)C(=O)COc1c(S(=O)(=O)CC)ccc(C(=O)C2=C(O)CCCC2=O)c1C(F)(F)F [Compound E3] | 90% | 100% | 100% | 100% | 100% | 90% | 100% | 90% | 100% | 100% | 100% | 100% | 100% | 100% | 90% |  |  |  |  |
